The numbers were not newly measured in patent US20040063806A1, “Antimicrobial polyalphaolefin composition” (priority 2000, published 2004), which cites them from elsewhere.

SMILES strings stand for the structures. Where two headings read alike, the source gives them in different places.

Series [1] deals with Aspergillus fumigatus. Particulars: Aspergillus fumigatus ATCC 9197, medium SMA.
Series [2] deals with Salmonella typhimurium. The conditions noted are these: Salmonella typhimurium NCTC 5710, medium NA.
The subject of series [3] is Enterobacter sakazakii. Particulars: Enterobacter sakazakii NCTC 8155, medium NA.
Series [4] deals with Actinomyces bovis. The conditions noted are these: origin A, medium NA.
Series [5] concerns Neisseria catarrhalis. Particulars: Neisseria catarrhalis NCTC 3622, medium BA.
The test system of series [6] is Proteus vulgaris.
Series [7] deals with Trichophyton cutaneum. The conditions noted are these: origin A, medium SMA.
Series [8] has as its system Salmonella typhi.
Series [9] has as its system Proteus mirabilis. Particulars: Proteus mirabilis ATCC 14153, medium M-H.
Series [10] relates to Staphylococcus lactis. Particulars: Staphylococcus lactis NCTC 8340, medium NA.
Series [11] relates to Serratia marcescens. Particulars: Serratia marcescens ATCC 14756, medium M-H.
Series [12] has as its system Aspergillus niger. Particulars: Aspergillus niger ATCC 6275, medium M.
In series [13] the test system is Staphylococcus albus. The conditions noted are these: Staphylococcus albus NCTC 7292, medium NA.
The subject of series [14] is Lactobacillus fermenti. The conditions noted are these: Lactobacillus fermenti ATCC 707, medium MACA.
The test system of series [15] is Haemophilius influenca. The conditions noted are these: Haemophilius influenca ATCC 33391, medium B-A.
Series [16] deals with Enterococcus faecalis.
Series [17] has as its system Keratinomyces ajelloi. The conditions noted are these: origin A, medium SMA.
The test system of series [18] is Candida albicans.

Consider `Oc1cc(Cl)ccc1Oc1ccc(Cl)cc1Cl` [IRGAGUARD B 1000, 2,4,4′-trichloro-2′-hydroxydiphenyl ether], for which the Microbiostatic effect in series [1] is listed as 10 ppm; in [2] it was 0.3 ppm; in series [3], 0.3 ppm; in series [4], 1.0 ppm; in [5] it was 33.0 ppm; in [6] (Proteus vulgaris NCTC 4636, medium NA) it was 0.3 ppm. Moreover, the Microbiostatic effect in series [6] (Proteus vulgaris NCTC 8313, medium NA) is reported as 0.1 ppm; in [7], 10 ppm; in series [8] (Salmonella typhi NCTC 786, medium NA), 0.3 ppm; in series [8] (Salmonella typhi NCTC 8384, medium NA), 0.3 ppm; in [9] it was 0.5 ppm; in [10], 3.0 ppm. Besides, the Microbiostatic effect in [11] is on record as over 512 ppm; in [12], 30 ppm; in [13] it was 0.1 ppm; in series [14] it was 33.0 ppm; in series [15], 2.0 ppm; in series [16] (Enterococcus faecalis ATCC 6055, medium M-H) it was 5.0 ppm. Further, the Microbiostatic effect in [16] (Enterococcus faecalis ATCC 29212, medium M-H) is reported as 4.0 ppm; in series [16] (Enterococcus faecalis NCTC 12201, medium M-H, Varicomycin resistant), 5.0 ppm; in [16] (Enterococcus faecalis NCTC 12203, medium M-H, Varicomycin resistant), 5.0 ppm; in [17] it was 10 ppm; in [18] (Candida albicans ATCC 10259, medium M), 3 ppm; in [18] (Candida albicans, origin A, medium SMA) it was 10 ppm.
